Data taken from patent publication US8026218B2, “Bifunctional analgesic compounds for opioid receptor agonists and neurokinin-1 receptor antagonists” (The University of Arizona, priority 2006, dated 2011).
Where two headings read alike, the source gives them in different places. Peptide text beside a SMILES is read from it.

Experiments:
μ opioid receptors (GPI) = assay: Guinea pig isolated ileum (GPI) assay, opioid agonist;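 further: inhibition of electrically evoked contractions (0.1 Hz, 0.4 msec, supramaximal voltage) in organ baths at 37 °C, contraction height 3 min after each cumulative dose versus the 1 min before dosing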
δ opioid receptors (MVD) = biological target: T1, δ opioid receptors (MVD) (Mus musculus, UniProt P32300); assay: Mouse isolated vas deferens (MVD) assay, opioid agonist
T1 construct: from tissue; host or cells: mouse (ICR) isolated vas deferens
T1 sequence (P32300 whole entry): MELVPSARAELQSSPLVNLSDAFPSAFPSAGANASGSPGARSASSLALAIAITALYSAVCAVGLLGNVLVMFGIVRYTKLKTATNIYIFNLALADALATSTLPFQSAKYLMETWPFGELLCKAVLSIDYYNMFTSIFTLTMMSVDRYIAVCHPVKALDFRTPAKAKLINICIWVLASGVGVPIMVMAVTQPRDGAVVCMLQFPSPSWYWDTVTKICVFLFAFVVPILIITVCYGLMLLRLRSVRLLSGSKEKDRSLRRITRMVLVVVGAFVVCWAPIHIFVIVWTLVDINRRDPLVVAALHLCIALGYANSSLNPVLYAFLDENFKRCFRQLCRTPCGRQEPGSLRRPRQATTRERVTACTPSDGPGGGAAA

[1] = biological target: T2, human δ opioid receptors (hDOR) (Homo sapiens, UniProt P41143); assay: [35S]GTP-γ-S binding assay, hDOR; type: biochemical; conditions: for EC50: read-out: GTP hDOR EC50
T2 construct: expressed in transfected cells; host or cells: HN9.10 neuroblastoma cell line, pCDNA3, neomycin-selected clones
T2 sequence (P41143 whole entry): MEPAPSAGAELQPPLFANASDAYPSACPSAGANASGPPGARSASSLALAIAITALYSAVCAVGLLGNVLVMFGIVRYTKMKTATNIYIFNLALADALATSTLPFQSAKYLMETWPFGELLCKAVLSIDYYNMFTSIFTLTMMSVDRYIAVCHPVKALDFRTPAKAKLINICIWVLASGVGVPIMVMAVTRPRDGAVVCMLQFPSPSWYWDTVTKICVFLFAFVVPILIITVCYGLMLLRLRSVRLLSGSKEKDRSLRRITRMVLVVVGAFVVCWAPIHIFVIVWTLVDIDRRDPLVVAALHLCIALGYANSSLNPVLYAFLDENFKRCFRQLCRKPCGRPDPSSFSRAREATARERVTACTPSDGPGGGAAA

[2] = biological target: T3, rat μ opioid receptors (rMOR) (Rattus norvegicus, UniProt P33535); assay: biochemical; type: biochemical
T3 construct: expressed in transfected cells; host or cells: HN9.10 neuroblastoma cell line, pCDNA3, neomycin-selected clones
T3 sequence (P33535 whole entry): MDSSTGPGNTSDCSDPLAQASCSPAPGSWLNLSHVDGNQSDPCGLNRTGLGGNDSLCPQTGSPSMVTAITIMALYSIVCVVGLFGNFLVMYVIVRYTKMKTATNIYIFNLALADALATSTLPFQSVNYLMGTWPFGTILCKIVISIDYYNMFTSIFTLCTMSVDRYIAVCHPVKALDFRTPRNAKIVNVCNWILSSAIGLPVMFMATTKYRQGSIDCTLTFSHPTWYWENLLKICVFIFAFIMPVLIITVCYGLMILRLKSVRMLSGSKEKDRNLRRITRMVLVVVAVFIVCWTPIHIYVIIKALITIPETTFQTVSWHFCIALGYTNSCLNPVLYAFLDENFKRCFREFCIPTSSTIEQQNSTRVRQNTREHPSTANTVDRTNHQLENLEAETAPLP

[3] = biological target: T4, Substance P receptors (guinea pig NK1) (Cavia porcellus, UniProt P30547); assay: Guinea pig isolated ileum (GPI) assay with substance P stimulation in presence of 1 μM naloxone
T4 construct: from tissue; host or cells: guinea pig (Hartley) ileum LMMP, 1 μM naloxone present
T4 sequence (P30547 whole entry): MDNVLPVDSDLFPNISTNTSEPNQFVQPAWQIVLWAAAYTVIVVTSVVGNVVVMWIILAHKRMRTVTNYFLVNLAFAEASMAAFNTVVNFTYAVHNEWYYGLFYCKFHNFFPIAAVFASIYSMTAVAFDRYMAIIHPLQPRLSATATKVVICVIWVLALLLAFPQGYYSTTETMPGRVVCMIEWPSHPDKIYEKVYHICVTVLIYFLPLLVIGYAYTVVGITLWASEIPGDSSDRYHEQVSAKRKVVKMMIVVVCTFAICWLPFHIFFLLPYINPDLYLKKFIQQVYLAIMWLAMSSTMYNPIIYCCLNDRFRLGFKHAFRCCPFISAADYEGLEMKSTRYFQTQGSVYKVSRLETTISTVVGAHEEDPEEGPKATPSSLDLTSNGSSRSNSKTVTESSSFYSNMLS
Protocol: Testing stopped at 1 mM concentrations of the test compound.
Analysis of GPI and MVD assays. For opioid data analysis, percentage inhibition was calculated using the average tissue contraction height for 1 min preceding the addition of the agonist divided by the contraction height 3 min after exposure to the dose of agonist. […] IC50 and Emax estimates were determined by computerized nonlinear least-squares analysis (the pharmacological statistics package FlashCalc: Dr. Michael Ossipov, University of Arizona, Tucson, Ariz.). […] A50 values represent the mean of not less than 4 tissues. A50 and Emax estimates were determined by computerized nonlinear least-squares analysis (FlashCalc).

[4] = biological target: T5, human NK1 receptor (hNK1) (Homo sapiens, UniProt P25103); assay: Radioligand competition binding, [3H]-Substance P, hNK1
T5 construct: expressed in transfected cells
T5 sequence (P25103 whole entry): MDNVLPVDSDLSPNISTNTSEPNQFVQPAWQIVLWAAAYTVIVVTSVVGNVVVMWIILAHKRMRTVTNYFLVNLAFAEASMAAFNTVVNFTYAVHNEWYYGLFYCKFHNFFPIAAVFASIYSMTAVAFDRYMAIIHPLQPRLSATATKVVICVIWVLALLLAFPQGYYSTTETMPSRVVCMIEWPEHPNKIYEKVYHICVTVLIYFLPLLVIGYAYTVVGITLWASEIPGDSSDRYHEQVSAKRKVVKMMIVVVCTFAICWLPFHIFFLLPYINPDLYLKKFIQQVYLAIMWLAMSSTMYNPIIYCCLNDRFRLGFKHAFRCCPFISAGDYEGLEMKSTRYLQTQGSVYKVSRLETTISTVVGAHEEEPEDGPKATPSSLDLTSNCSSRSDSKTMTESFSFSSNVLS

rat NK1 (rNK1) receptor = biological target: T6, rat NK1 (rNK1) receptor (Rattus norvegicus, UniProt P14600); assay: Radioligand competition binding, [3H]substance P, rNK1/CHO membranes; conditions: Ki (nM) rNK1, Table 33
T6 construct: expressed in transfected cells; host or cells: CHO (rNK-1/CHO cell line from Dr. James Krause)
T6 sequence (P14600 whole entry): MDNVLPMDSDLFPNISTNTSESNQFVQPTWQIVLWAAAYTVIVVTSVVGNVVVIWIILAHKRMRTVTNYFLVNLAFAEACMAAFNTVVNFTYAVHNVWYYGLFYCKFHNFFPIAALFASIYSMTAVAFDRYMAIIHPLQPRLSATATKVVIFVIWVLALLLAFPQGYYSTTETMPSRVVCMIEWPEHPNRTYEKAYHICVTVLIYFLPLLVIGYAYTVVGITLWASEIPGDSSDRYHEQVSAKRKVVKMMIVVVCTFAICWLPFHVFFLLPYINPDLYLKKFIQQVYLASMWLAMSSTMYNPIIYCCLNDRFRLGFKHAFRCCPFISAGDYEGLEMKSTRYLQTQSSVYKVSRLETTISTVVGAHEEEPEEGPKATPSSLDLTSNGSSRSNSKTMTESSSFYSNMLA

[5] = Table 35, read-out: GPI/LMMP μ-agonist IC50
[6] = Table 36, read-out: GPI μ-agonist IC50
[7] = Table 32, read-out: GTP hDOR EMax
[8] = Table 32, read-out: GTP rMOR EC50
[9] = Table 32, read-out: GTP rMOR EMax
[10] = GPI/LMMP SP antagonist Ke (nM), Table 35
[11] = Table 39, read-out: GTP binding hDOR Emax
[12] = Table 39, read-out: GTP binding rMOR Emax
[13] = Table 39, read-out: GPI/LMMP opioid(mu) agonist (IC50; nM)

SMILES: C[C@@H](NC(=O)[C@@H](N)Cc1ccc(O)cc1)C(=O)NCC(=O)N[C@@H](Cc1ccccc1)C(=O)NCC(=O)N[C@@H](Cc1c[nH]c2ccccc12)C(=O)OCc1cc(C(F)(F)F)cc(C(F)(F)F)c1 [NP30] (HELM PEPTIDE1{Y.[dA].G.F.G.W.[FC(F)(F)c1cc(CO[*:1])cc(C(F)(F)F)c1]}$$$$V2.0; N-terminus assumed)
- IC50 (μ opioid receptors (GPI); [5]): 25.7 nM

SMILES: C[C@@H](NC(=O)[C@@H](N)Cc1ccc(O)cc1)C(=O)NCC(=O)N[C@@H](Cc1ccccc1)C(=O)NCCC(=O)N[C@@H](Cc1c[nH]c2ccccc12)C(=O)OCc1cc(C(F)(F)F)cc(C(F)(F)F)c1 [NP32] (HELM PEPTIDE1{Y.[dA].G.F.[bAla].W.[FC(F)(F)c1cc(CO[*:1])cc(C(F)(F)F)c1]}$$$$V2.0; N-terminus assumed)
- IC50 (μ opioid receptors (GPI); [5]): 435 nM

SMILES: C[C@@H](NC(=O)[C@@H](N)Cc1ccc(O)cc1)C(=O)NCC(=O)N[C@@H](Cc1ccccc1)C(=O)N[C@@H](Cc1c[nH]c2ccccc12)C(=O)OCc1cc(C(F)(F)F)cc(C(F)(F)F)c1 [NP36] (HELM PEPTIDE1{Y.[dA].G.F.W.[FC(F)(F)c1cc(CO[*:1])cc(C(F)(F)F)c1]}$$$$V2.0; N-terminus assumed)
- IC50 (μ opioid receptors (GPI); [6]): 523 nM

SMILES: CSCC[C@H](NC(=O)[C@H](Cc1ccccc1)NC(=O)CNC(=O)[C@@H](C)NC(=O)[C@@H](N)Cc1ccc(O)cc1)C(=O)N[C@@H](Cc1c[nH]c2ccccc12)C(=O)OCc1cc(C(F)(F)F)cc(C(F)(F)F)c1 [NP38] (HELM PEPTIDE1{Y.[dA].G.F.M.W.[FC(F)(F)c1cc(CO[*:1])cc(C(F)(F)F)c1]}$$$$V2.0; N-terminus assumed)
- IC50 (μ opioid receptors (GPI); [5]): 393 nM
- IC50 (δ opioid receptors (MVD)): 9.07 nM
- EC50 ([1]; Table 32): 1.1 nM
- Emax [1, 7]: 36%
- EC50 [2, 8]: 0.8 nM
- Emax [2, 9]: 51%
- Kb [3, 10]: 2 nM

SMILES: C[C@@H](NC(=O)[C@@H](N)Cc1ccc(O)cc1)C(=O)NCC(=O)N[C@@H](Cc1ccccc1)C(=O)N1CCC[C@H]1C(=O)N[C@@H](Cc1c[nH]c2ccccc12)C(=O)OCc1cc(C(F)(F)F)cc(C(F)(F)F)c1 [NP39] (HELM PEPTIDE1{Y.[dA].G.F.P.W.[FC(F)(F)c1cc(CO[*:1])cc(C(F)(F)F)c1]}$$$$V2.0; N-terminus assumed)
- IC50 (μ opioid receptors (GPI); [5]): 259 nM
- Ki [4]: 0.1 nM

SMILES: C[C@@H](NC(=O)[C@H](Cc1ccccc1)NC(=O)CNC(=O)[C@@H](C)NC(=O)[C@@H](N)Cc1ccc(O)cc1)C(=O)N[C@@H](Cc1c[nH]c2ccccc12)C(=O)OCc1cc(C(F)(F)F)cc(C(F)(F)F)c1 [NP40] (HELM PEPTIDE1{Y.[dA].G.F.[dA].W.[FC(F)(F)c1cc(CO[*:1])cc(C(F)(F)F)c1]}$$$$V2.0; N-terminus assumed)
- IC50 (μ opioid receptors (GPI); [5]): 528 nM
- IC50 (δ opioid receptors (MVD)): 58 nM
- EC50 ([1]; Table 32): 71.3 nM
- Emax [1, 7]: 89%
- EC50 [2, 8]: 93.1 nM
- Emax [2, 9]: 19%
- Kb [3, 10]: 608 nM

SMILES: C[C@@H](NC(=O)[C@@H](N)Cc1ccc(O)cc1)C(=O)NCC(=O)N[C@@H](Cc1c[nH]c2ccccc12)C(=O)OCc1cc(C(F)(F)F)cc(C(F)(F)F)c1 [NP44] (HELM PEPTIDE1{Y.[dA].G.W.[FC(F)(F)c1cc(CO[*:1])cc(C(F)(F)F)c1]}$$$$V2.0; N-terminus assumed)
- IC50 (μ opioid receptors (GPI); [6]): 844 nM
- IC50 (δ opioid receptors (MVD)): 303 nM
- Ki (rat NK1 (rNK1) receptor): 3.4 nM
- Kb ([3]; GPI SP-antagonist Ke (nM), Table 36): 5 nM

SMILES: C[C@@H](NC(=O)[C@@H](N)Cc1ccc(O)cc1)C(=O)NCC(=O)N[C@@H](Cc1ccc(Cl)cc1)C(=O)NCC(=O)N[C@@H](Cc1c[nH]c2ccccc12)C(=O)OCc1cc(C(F)(F)F)cc(C(F)(F)F)c1 [NP46] (HELM PEPTIDE1{Y.[dA].G.[O=C([C@H](Cc1ccc(Cl)cc1)N[*:1])[*:2]].G.W.[FC(F)(F)c1cc(CO[*:1])cc(C(F)(F)F)c1]}$$$$V2.0; N-terminus assumed)
- IC50 (μ opioid receptors (GPI); Table 37, read-out: GPI μ-agonist IC50): 124 nM

SMILES: Cc1cc(O)cc(C)c1C[C@H](N)C(=O)N[C@H](C)C(=O)N[C@@H](Cc1c[nH]c2ccccc12)C(=O)OCc1cc(C(F)(F)F)cc(C(F)(F)F)c1 [NP48]
- GPI μ-agonist, % at 1 μM (μ opioid receptors (GPI); Table 36, at 1 μM): 20.4% at 1 μM
- IC50 (δ opioid receptors (MVD)): 408 nM

SMILES: CC(C)C[C@H](NC(=O)[C@@H]1CCCN1C(=O)[C@H](Cc1ccccc1)NC(=O)[C@H](Cc1ccccc1)NC(=O)CNC(=O)[C@@H](C)NC(=O)[C@@H](N)Cc1ccc(O)cc1)C(=O)N[C@@H](Cc1c[nH]c2ccccc12)C(=O)NCc1cc(C(F)(F)F)cc(C(F)(F)F)c1 [TY015] (HELM PEPTIDE1{Y.[dA].G.F.F.P.L.W.[FC(F)(F)c1cc(CN[*:1])cc(C(F)(F)F)c1]}$$$$V2.0; N-terminus assumed)
- Emax [1, 11]: 142%
- EC50 ([2]; Table 39, read-out: GTP binding rMOR EC50): 176 nM
- Emax [2, 12]: 64.4%

SMILES: CC(C)C[C@H](NC(=O)[C@@H]1CCCN1C(=O)[C@H](Cc1ccccc1)NC(=O)[C@H](Cc1ccccc1)NC(=O)CNC(=O)[C@@H](C)NC(=O)[C@@H](N)Cc1ccc(O)cc1)C(=O)N[C@@H](Cc1c[nH]c2ccccc12)C(=O)N(C)Cc1cc(C(F)(F)F)cc(C(F)(F)F)c1 [TY017] (HELM PEPTIDE1{Y.[dA].G.F.F.P.L.W.[CN(Cc1cc(C(F)(F)F)cc(C(F)(F)F)c1)[*:1]]}$$$$V2.0; N-terminus assumed)
- Emax [1, 11]: 125%
- Emax [2, 12]: 62.4%

SMILES: CSCC[C@H](NC(=O)[C@H](Cc1ccccc1)NC(=O)CNC(=O)[C@@H](C)NC(=O)[C@@H](N)Cc1ccc(O)cc1)C(=O)N[C@H](CC(C)C)C(=O)N[C@@H](CC(C)C)C(=O)N[C@@H](Cc1c[nH]c2ccccc12)C(=O)OCc1cc(C(F)(F)F)cc(C(F)(F)F)c1 [TY021] (HELM PEPTIDE1{Y.[dA].G.F.M.[dL].L.W.[FC(F)(F)c1cc(CO[*:1])cc(C(F)(F)F)c1]}$$$$V2.0)
- Emax [1, 11]: 41.1%
- Emax [2, 12]: 51.4%

SMILES: CSCC[C@H](NC(=O)[C@H](Cc1ccccc1)NC(=O)CNC(=O)[C@@H](C)NC(=O)[C@@H](N)Cc1ccc(O)cc1)C(=O)NC(C)(C)C(=O)N[C@@H](CC(C)C)C(=O)N[C@@H](Cc1c[nH]c2ccccc12)C(=O)OCc1cc(C(F)(F)F)cc(C(F)(F)F)c1 [TY022]
- Emax [2, 12]: 32%

SMILES: CSCC[C@H](NC(=O)[C@H](Cc1ccccc1)NC(=O)CNC(=O)[C@@H](C)NC(=O)[C@@H](N)Cc1ccc(O)cc1)C(=O)N1CCC[C@@H]1C(=O)N[C@@H](CC(C)C)C(=O)N[C@@H](Cc1c[nH]c2ccccc12)C(=O)OCc1cc(C(F)(F)F)cc(C(F)(F)F)c1 [TY024]
- Emax ([1]; read-out: GTP binding hDOR Emax): 21%
- Emax ([2]; read-out: GTP binding rMOR Emax): 28%

SMILES: CSCC[C@H](NC(=O)[C@H](Cc1ccccc1)NC(=O)CNC(=O)[C@@H](C)NC(=O)[C@@H](N)Cc1ccc(O)cc1)C(=O)N1CCC[C@H]1C(=O)N[C@@H](CC(C)C)C(=O)N[C@@H](Cc1c[nH]c2ccccc12)C(=O)N(C)Cc1ccccc1 [TY026]
- IC50 (μ opioid receptors (GPI); [13]): 86.7 nM
- Ki [4]: 0.001 nM
- IC50 (δ opioid receptors (MVD)): 7.89 nM
- Emax [1, 11]: 93%

SMILES: CSCC[C@H](NC(=O)[C@H](Cc1ccccc1)NC(=O)CNC(=O)[C@@H](C)NC(=O)[C@@H](N)Cc1ccc(O)cc1)C(=O)N1CCC[C@H]1C(=O)N[C@@H](CC(C)C)C(=O)N[C@@H](Cc1c[nH]c2ccccc12)C(=O)N(C)Cc1cc(C(F)(F)F)cc(C(F)(F)F)c1 [TY028]
- IC50 (μ opioid receptors (GPI); [13]): 971 nM
- IC50 (δ opioid receptors (MVD)): 11.2 nM
- Emax [1, 11]: 59%
- Emax [2, 12]: 52%
- Kb ([3]; GPI/LMMP SP antagonist (Ke; nM), Table 39): 4.6 nM

SMILES: COc1cc(COC(=O)[C@H](Cc2c[nH]c3ccccc23)NC(=O)[C@H](CC(C)C)NC(=O)[C@@H]2CCCN2C(=O)[C@H](CCSC)NC(=O)[C@H](Cc2ccccc2)NC(=O)CNC(=O)[C@@H](C)NC(=O)[C@@H](N)Cc2ccc(O)cc2)cc(OC)c1 [TY030]
- IC50 (μ opioid receptors (GPI); [13]): 31 nM
- Emax [1, 11]: 61%
- Emax [2, 12]: 59%

SMILES: CSCC[C@H](NC(=O)[C@H](Cc1ccccc1)NC(=O)CNC(=O)[C@@H](CS)NC(=O)[C@@H](N)Cc1ccc(O)cc1)C(=O)N1CCC[C@H]1C(=O)N[C@@H](CC(C)C)C(=O)N[C@@H](Cc1c[nH]c2ccccc12)C(=O)OCc1cc(C(F)(F)F)cc(C(F)(F)F)c1 [TY031] (HELM PEPTIDE1{Y.[dC].G.F.M.P.L.W.[FC(F)(F)c1cc(CO[*:1])cc(C(F)(F)F)c1]}$$$$V2.0; N-terminus assumed)
- IC50 (δ opioid receptors (MVD)): 235 nM

SMILES: CCCC[C@H](NC(=O)[C@H](Cc1ccccc1)NC(=O)CNC(=O)[C@@H](C)NC(=O)[C@@H](N)Cc1c(C)cc(O)cc1C)C(=O)N1CCC[C@H]1C(=O)N[C@@H](CC(C)C)C(=O)N[C@@H](Cc1c[nH]c2ccccc12)C(=O)NCc1cc(C(F)(F)F)cc(C(F)(F)F)c1 [TY050]
- Emax [2, 12]: 45%

SMILES: CSCC[C@H](N)C(=O)N1CCC[C@H]1C(=O)N[C@@H](CC(C)C)C(=O)N[C@@H](Cc1c[nH]c2ccccc12)C(=O)NCc1cc(C(F)(F)F)cc(C(F)(F)F)c1 [TY051] (HELM PEPTIDE1{M.P.L.W.[FC(F)(F)c1cc(CN[*:1])cc(C(F)(F)F)c1]}$$$$V2.0; N-terminus assumed)
- GTP binding rMOR EC50 ([2]; Table 39): no response

SMILES: CCCC[C@H](NC(=O)[C@H](Cc1ccccc1)NC(=O)CNC(=O)[C@@H](C)NC(=O)[C@@H](N)Cc1c(C)cc(O)cc1C)C(=O)N1CCC[C@H]1C(=O)N[C@@H](CC(C)C)C(=O)N[C@@H](Cc1c[nH]c2ccccc12)C(=O)NCc1cccc(C(F)(F)F)c1 [TY053]
- Ki [4]: 1.04 nM
- Emax [2, 12]: 20%
